Laboratory results reported in patent publication US6518307B2, “Control of microbial populations in the gastrointestinal tract of animals” (Lynntech, Inc., priority 2000, dated 2003).

Experiments:
[1] = test system: bacteria; test: In vitro bacterial kill in the presence of interfering compounds found in poultry ingesta; type: cell-based; details: in the presence of potentially interfering compounds of poultry ingesta
Source text: Organic compounds have been evaluated for biocidal efficacy in the upper GI tract of poultry, including D-limonene. […] Organic acids have also found utility as a drinking water biocide for gut bacteria.

[2] = cited from earlier work
[3] = test system: bacteria in the crops of market-age broilers; test: Biocidal effect of a drinking water oxidant in the crops of market-age broilers; type: in vivo; details: dissolved in drinking water
Description: A variety of chemicals have been evaluated for efficacy as a drinking water-based biocide for administration to birds during the period of feed withdrawal. […] It was found, however, that the biocidal effect of this dissolved, short-lived oxidant was minimal in the crops of market-age broilers. This ineffectiveness is thought to be due primarily to the high ozone demand of the ingesta itself, which consumes the majority of the ozone and subsequently prevents delivery of sufficient ozone to the bacteria surfaces.

[4] = in water, alcohol, ether, and sulfuric acid; cited from earlier work
[5] = test system: Salmonella enteritidis; test: In vitro reduction of Salmonella enteritidis in the presence of autoclaved broiler feed; type: cell-based; details: 1 h, 37° C.
Description: Another study was performed to determine the bactericidal effects of the same three peracids investigated in the first study. Eleven tubes were filled with 0.5 g of autoclaved broiler feed to which 100 ul of a Salmonella enteritidis culture broth was added. Two of the tubes were additionally filled with 1.9 ml of distilled water and the remaining nine were filled with an additional 1.7 ml of H2O. The peracids were added to the nine tubes to achieve a 0.0125% of each of the three peracids and two subsequent dilutions to achieve 0.00625% and 0.003125% of each. The samples were incubated at 37° C. and vortexed. After 1 h, the samples were plated and diluted to yield a plate count of 10^4 and 10^3 cfu/ml

[6] = test system: Salmonella enteritidis; test: Reduction of Salmonella in crops of SE challenged broilers, perlactic acid vs lactic acid and hydrogen peroxide (Example 8); type: in vivo; details: 30 ppm in drinking water for 8 hours
Description: In the final broiler study, forty-five 8-week old broilers were divided up into 3 groups with […]. Upon feed withdrawal, all birds were gavaged with 1 ml of a 1×10^8 challenge of Salmonella enteritidis. At this time, all feed was removed and the drinking water treatments administered. […] All groups received the same withdrawal time of 8 hours. At the time of kill, the crops were aseptically collected after cervical dislocation. The crops were added to […] bags containing 10 ml of PBS. The bags were stomached for 30 sec where upon 250 μl were removed and added to 2.25 ml of PBS. […] Groups 2 and 3 were directly plated from the […] bags by taking 100 μl from the bag and spread plating it onto BGA plates. These plates were incubated for 24 hrs at 37° C. The plates were counted for CFUs and log 10 reductions. After the bags had been used for dilution purposes, 9.0 ml of tetrathionate broth was added for enrichment purposes. These bags were incubated along with the plates. 24 hours later, 1 loopful of the bag contents were streaked onto BGA plates for +/- observations.

[7] = test system: Salmonella enteritidis; test: Reduction of Salmonella in broiler crops, peracid in drinking water during 8 h feed withdrawal (Example 6); type: in vivo; details: 8 h exposure, broilers
Description: To determine the biocidal effect of perlactic and percitric on Salmonella in the upper GI tract (crops) of broiler chickens, peracid solutions were added to the drinkers such that the concentration of perlactic was 0.006 or 0.003% and percitric was at a 0.03% concentration. The birds were deprived of water for 8 h prior to an 8 h feed withdrawal period and allowed to drink the water for 8 h. Prior to reintroduction of the water with the test compounds, the birds were gavaged with 1 ml of 10^8 Salmonella. After the 8 h test consumption, the birds were terminated, the crops removed aseptically, stomached for 30 seconds, diluted and plated onto BGA with NO/NA.

[8] = test system: Salmonella enteritidis; test: Reduction of Salmonella in broiler crops under different consumption pressures (Example 7); type: in vivo; details: 0.003125% (30 ppm) in drinking water
Description: Another experiment was designed to further characterize the disinfection effect of perlactic acids when different consumption pressures were placed on 8 week-old broilers. All of the birds had the feed removed 8 hours prior to slaughter. Perlactic acid was added at 0.003125% (30 ppm) to the drinking water for the last 8 hours of the study (feed withdrawal period). The first treatment group had water removed 8 hours prior to the 8 h feed withdrawal (PL 8-8-8) and the second treatment group had only feed withdrawal/perlactic treatment (PL 8—8). The last group had access to the peracid in their drinking water 12 hours prior to slaughter and the feed taken up 4 hours after that yielding a final feed withdrawal time of 8 h (PL 12-8). At the conclusion of the study, the crops were processed microbiologically similar to the methods described for FIG. 3.

[9] = all concentrations (0.0125%, 0.00625%, 0.003125%)
[10] = highest concentration (0.0125%)

C=C(C)[C@H]1CC=C(C)CC1 [D-limonene]
in vitro antibacterial effect [1]: excellent bacterial kills

OO [HP, hydrogen peroxide, reference compound]
loss of active ingredients ([2]; 30 to 90% solution): less than 1 % per year

O=[O+][O-] [Ozone]
biocidal effect in the crops [3]: minimal

CC(=O)O [acetic acid]
in vitro antibacterial effect [1]: excellent in vitro antibacterial capability

CC(=O)OO [peracetic acid]
time to lose half its strength through hydrolysis ([2]; 1% solution): 6 days
solubility [4]: freely soluble
biocidal effect on Salmonella enteritidis [5, 9]: poor biocide

CC(O)C(=O)OO (centres unmarked) [perlactic acid]
reduction in Salmonella in the crop as compared to the control [6]: 2.71 Log10
log reduction of Salmonella in the crop ([7]; 0.003% in drinking water): two
reduction of Salmonella in the crop ([7]; 0.006 or 0.003% in drinking water): multiple log reduction
effectiveness in reducing Salmonella in crops compared to FIG. 3 ([8]; same concentrate used 1 week later): diminished
influence of increased exposure time or water deprivation prior to feed withdrawal on biocidal effect ([8]; PL 8-8-8, PL 8-8, PL 12-8): does not increase the biocidal effect
biocidal effect on Salmonella enteritidis [5, 9]: showed a disinfection efficacy at all concentrations
biocidal effect on Salmonella enteritidis [5, 10]: eliminated the Salmonella to levels that fell below the detection limit of this assay

percitric acid
reduction of Salmonella in the crop ([7]; 0.03% in drinking water): multiple log reduction
biocidal effect on Salmonella enteritidis ([5]; diluted samples (0.00625%, 0.003125%)): not as efficient
biocidal effect on Salmonella enteritidis [5, 10]: significant biocidal effects
